The values below are quoted from earlier work in patent US20030215917A1, “Assay for evaluation of activity of compounds against HCV using a novel detection system in the HCV replicon” (priority 2002, published 2003).

The subject of data set [1] is host cells.
In data set [2] the test system is Hepatitis B virus (HBV), Hepatitis C virus (HCV), Yellow Fever virus, Dengue Virus, Japanese Encephalitis, West Nile virus and related flaviviruses.
Data set [3] concerns HCV replicon cells. Particulars: at high concentration; stated as known.
Data set [4] has as its system HCV and HCV replicon. Conditions: stated as known.

Regarding `O=C1OCc2c1cc1ccc3c(c1c2-c1ccc2c(c1)OCO2)OCO3` [Helioxanthin], the “toxicity to the host cells” value in data set [1] is “very low toxicity”. Moreover, in data set [2], the activity against viruses entry was “high activity” and the “inhibition of the replication of the virus (viral growth)” value is “potent inhibition”. Moreover, in data set [3], the cytotoxicity effect result is reported as “known to have cytotoxicity effect at high concentration”.
interferon alpha: the “inhibition of viral replication” value in data set [4] is listed as “known to inhibit viral replication”.
